Data: patent publication US8426420B2, “Heterocyclic pyrazole-carboxamidesas P2Y12 antagonists” (Sanofi, priority 2007, dated 2013)
pIC50: −log10 of the molar value.

How the values were obtained:
[1] = target: human P2Y12 receptor (Homo sapiens, UniProt Q9H244); assay: Human P2Y12 recombinant cell membrane binding assay with 33P 2MeS-ADP; settings: competition against 33P 2MeS-ADP, membranes of CHO cells with recombinant human P2Y12 receptor
Procedure, shortened: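 Competition binding against radiolabeled 2MeS-ADP (1.61 nM as added) on membranes from recombinant human P2Y12 CHO cells, 20 min RT after 15 min compound preincubation, pH 7.4. Filtration then scintillation counting; compounds tested in triplicate from 10 μM final, five-fold dilutions, curve fit with plate-defined min/max.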

[2] = system: human platelet rich plasma; assay: Inhibition of human platelet aggregation, 96-well assay; format: cell-based; settings: Homo sapiens, Platelet, 20 min
Procedure, shortened: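 ADP-induced aggregation read as 650 nm absorbance every minute for 20 min at 37 °C, with shaking between reads. PRP (~3×E8 platelets/ml, diluted with PPP, ACD-A blood from healthy volunteers) was exposed to compound for 5 min before adding a 40 μM ADP stock (15 μl into 150 μl).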

Chain of human P2Y12 receptor (Q9H244 whole entry): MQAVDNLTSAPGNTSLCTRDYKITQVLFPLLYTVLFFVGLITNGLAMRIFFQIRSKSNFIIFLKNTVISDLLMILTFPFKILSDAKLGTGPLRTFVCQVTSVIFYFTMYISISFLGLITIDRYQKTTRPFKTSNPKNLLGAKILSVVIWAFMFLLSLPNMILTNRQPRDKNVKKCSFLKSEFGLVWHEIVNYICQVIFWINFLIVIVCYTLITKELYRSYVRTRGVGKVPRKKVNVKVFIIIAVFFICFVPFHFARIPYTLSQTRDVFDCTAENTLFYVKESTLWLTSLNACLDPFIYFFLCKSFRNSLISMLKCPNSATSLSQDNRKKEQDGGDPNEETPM

Row | Structure (SMILES) | pIC50 [1] | pIC50 [2]
1 | CCOC(=O)N1CCN(C(=O)[C@H](CCC(=O)O)NC(=O)c2cc(OCC(=O)N3CCC[C@H]3C(=O)NC3CCC3)n(-c3ccccc3)n2)[C@H](C)C1 [Example 150, (R)-4-[(S)-4-Carboxy-2-({5-[2-((S)-2-cyclobutylcarbamoyl-pyrrolidin-1-yl)-2-oxo-ethoxy]-1-phenyl-1H-pyrazole-3-carbonyl}-amino)-butyryl]-3-methyl-piperazine-1-carboxylic acid ethyl ester] | 7.70 | 7.15
2 | O=C(O)CC[C@H](NC(=O)c1cc(OCC(=O)N2CCC[C@H]2C(=O)NC2CCC2)n(-c2ccccc2)n1)C(=O)N1CCN(C(=O)OCc2ccccc2)CC1 [Example 159, 4-[(S)-4-Carboxy-2-({5-[2-((S)-2-cyclobutylcarbamoyl-pyrrolidin-1-yl)-2-oxo-ethoxy]-1-phenyl-1H-pyrazole-3-carbonyl}-amino)-butyryl]-piperazine-1-carboxylic acid benzyl ester] | 7.82 | 6.92
3 | O=C(O)CC[C@H](NC(=O)c1cc(OCC(=O)N2CCC[C@H]2C(=O)NCC2CC2)n(-c2ccccc2)n1)C(=O)N1CCN(C(=O)OCc2ccccc2)CC1 [Example 161, 4-[(S)-4-Carboxy-2-({5-[2-((S)-2-(cyclopropylmethyl-carbamoyl)-pyrrolidin-1-yl)-2-oxo-ethoxy]-1-phenyl-1H-pyrazole-3-carbonyl}-amino)-butyryl]-piperazine-1-carboxylic acid benzyl ester] | 7.48 | 6.62
4 | O=C(O)CC[C@H](NC(=O)c1cc(OCC(=O)N2CCC[C@H]2C(=O)NC2CCC2)n(-c2ccccc2)n1)C(=O)N1CCN(C(=O)OC2CCC2)CC1 [Example 163, 4-[(S)-4-Carboxy-2-({5-[2-((S)-2-cyclobutylcarbamoyl-pyrrolidin-1-yl)-2-oxo-ethoxy]-1-phenyl-1H-pyrazole-3-carbonyl}-amino)-butyryl]-piperazine-1-carboxylic acid cyclobutyl ester] | 7.89 | 8.00
5 | CCOC(=O)N1CCN(C(=O)[C@H](CCC(=O)O)NC(=O)c2cc(OCC(=O)N3CC(F)(F)C[C@H]3C(=O)NC3CCC3)n(-c3ccccc3)n2)CC1 [Example 164, 4-[(S)-4-Carboxy-2-({5-[2-((S)-2-cyclobutylcarbamoyl-4,4-difluoro-pyrrolidin-1-yl)-2-oxo-ethoxy]-1-phenyl-1H-pyrazole-3-carbonyl}-amino)-butyryl]-piperazine-1-carboxylic acid ethyl ester] | 7.09 | 7.40
6 | CCOC(=O)N1CCN(C(=O)[C@H](CCNC(=O)C2CC2(F)F)NC(=O)c2cc(OCC(=O)N3CCC[C@H]3C(=O)NC3CCC3)n(-c3ccccc3)n2)CC1 (stereo partly drawn) [Example 187, 4-{(S)-2-({5-[2-((S)-2-Cyclobutylcarbamoyl-pyrrolidin-1-yl)-2-oxo-ethoxy]-1-phenyl-1H-pyrazole-3-carbonyl}-amino)-4-[(2,2-difluoro-cyclopropanecarbonyl)-amino]-butyryl}-piperazine-1-carboxylic acid ethyl ester] | 7.01 | 6.36
7 | CCOC(=O)N1CCN(C(=O)[C@H](CCNS(=O)(=O)C(F)(F)F)NC(=O)c2cc(OCC(=O)N3CCC[C@H]3C(=O)NC3CCC3)n(-c3ccccc3)n2)CC1 [Example 188, 4-[(S)-2-({5-[2-((S)-2-Cyclobutylcarbamoyl-pyrrolidin-1-yl)-2-oxo-ethoxy]-1-phenyl-1H-pyrazole-3-carbonyl}-amino)-4-trifluoromethanesulfonylamino-butyryl]-piperazine-1-carboxylic acid ethyl ester] | 8.00 | 6.31
8 | CCCCOC(=O)N1CCN(C(=O)[C@H](CCCOC(C)=O)NC(=O)c2cc(OCC(=O)N3CCC[C@H]3C(=O)NC3CCC3)n(-c3ccccc3)n2)CC1 [Example 211, 4-[(S)-5-Acetoxy-2-({5-[2-((S)-2-cyclobutylcarbamoyl-pyrrolidin-1-yl)-2-oxo-ethoxy]-1-phenyl-1H-pyrazole-3-carbonyl}-amino)-pentanoyl]-piperazine-1-carboxylic acid butyl ester] | 7.70 | 6.55

The remaining lines, values ahead:

Row | pIC50 [1] | pIC50 [2] | Structure (SMILES)
9 | 7.46 | 6.46 | COC(=O)CC[C@H](NC(=O)c1cc(OCC(=O)N2CCC[C@H]2C(=O)NC2CCC2)n(-c2ccccc2)n1)C(=O)N1CCN(C(=O)OC2CCC2)CC1 [Example 189, 4-[(S)-2-({5-[2-((S)-2-Cyclobutylcarbamoyl-pyrrolidin-1-yl)-2-oxo-ethoxy]-1-phenyl-1H-pyrazole-3-carbonyl}-amino)-4-methoxycarbonyl-butyryl]-piperazine-1-carboxylic acid cyclobutyl ester]
10 | 8.22 | 6.42 | CCCCOC(=O)N1CCN(C(=O)[C@H](CCC(=O)OC)NC(=O)c2cc(OCC(=O)N3CCC[C@H]3C(=O)NC3CCC3)n(-c3ccccc3)n2)CC1 [Example 191, 4-[(S)-2-({5-[2-((S)-2-Cyclobutylcarbamoyl-pyrrolidin-1-yl)-2-oxo-ethoxy]-1-phenyl-1H-pyrazole-3-carbonyl}-amino)-4-methoxycarbonyl-butyryl]-piperazine-1-carboxylic acid butyl ester]
11 | 6.88 | 6.72 | O=C(NCC(=O)N1CCN(C(=O)OC2CCC2)CC1)c1cc(OCC(=O)N2CCC[C@H]2C(=O)NC2CCC2)n(-c2ccccc2)n1 [Example 192, 4-[2-({5-[2-((S)-2-Cyclobutylcarbamoyl-pyrrolidin-1-yl)-2-oxo-ethoxy]-1-phenyl-1H-pyrazole-3-carbonyl}-amino)-acetyl]-piperazine-1-carboxylic acid cyclobutyl ester]
12 | 6.94 | 6.14 | CCOCCOC(=O)CC[C@H](NC(=O)c1cc(OCC(=O)N2CCC[C@H]2C(=O)NC2CCC2)n(-c2ccccc2)n1)C(=O)N1CCN(C(=O)OCC)CC1 [Example 198, 4-[(S)-2-({5-[2-((S)-2-Cyclobutylcarbamoyl-pyrrolidin-1-yl)-2-oxo-ethoxy]-1-phenyl-1H-pyrazole-3-carbonyl}-amino)-4-(2-ethoxy-ethoxycarbonyl)-butyryl]-piperazine-1-carboxylic acid ethyl ester]
13 | 6.86 | 6.04 | CCOC(=O)N1CCN(C(=O)[C@H](CCC(=O)OCC2CCCO2)NC(=O)c2cc(OCC(=O)N3CCC[C@H]3C(=O)NC3CCC3)n(-c3ccccc3)n2)CC1 (stereo partly drawn) [Example 199, 4-[(S)-2-({5-[2-((S)-2-Cyclobutylcarbamoyl-pyrrolidin-1-yl)-2-oxo-ethoxy]-1-phenyl-1H-pyrazole-3-carbonyl}-amino)-4-(tetrahydro-furan-2-ylmethoxycarbonyl)-butyryl]-piperazine-1-carboxylic acid ethyl ester]
14 | 6.73 | 6.39 | CCCOC(=O)N1CCN(C(=O)[C@@H](C)NC(=O)c2cc(OCC(=O)N3CCC[C@H]3C(=O)NC3CCC3)n(-c3ccccc3)n2)CC1 [Example 206, 4-[(R)-2-({5-[2-((S)-2-Cyclobutylcarbamoyl-pyrrolidin-1-yl)-2-oxo-ethoxy]-1-phenyl-1H-pyrazole-3-carbonyl}-amino)-propionyl]-piperazine-1-carboxylic acid propyl ester]
15 | 6.90 | 6.41 | CCCOC(=O)N1CCN(C(=O)[C@H](C)NC(=O)c2cc(OCC(=O)N3CCC[C@H]3C(=O)NC3CCC3)n(-c3ccccc3)n2)CC1 [Example 208, 4-[(S)-2-({5-[2-((S)-2-Cyclobutylcarbamoyl-pyrrolidin-1-yl)-2-oxo-ethoxy]-1-phenyl-1H-pyrazole-3-carbonyl}-amino)-propionyl]-piperazine-1-carboxylic acid propyl ester]
16 | 7.66 | 6.48 | CCCCOC(=O)N1CCN(C(=O)[C@H](CCCCO)NC(=O)c2cc(OCC(=O)N3CCC[C@H]3C(=O)NC3CCC3)n(-c3ccccc3)n2)CC1 [Example 213, 4-[(S)-2-({5-[2-((S)-2-Cyclobutylcarbamoyl-pyrrolidin-1-yl)-2-oxo-ethoxy]-1-phenyl-1H-pyrazole-3-carbonyl}-amino)-6-hydroxy-hexanoyl]-piperazine-1-carboxylic acid butyl ester]
17 | 7.47 | 6.59 | CCCCOC(=O)N1CCN(C(=O)[C@H](CCC)NC(=O)c2cc(OCC(=O)N3CCC[C@H]3C(=O)NC3CCC3)n(-c3ccccc3)n2)CC1 [Example 221, 4-[(S)-2-({5-[2-((S)-2-Cyclobutylcarbamoyl-pyrrolidin-1-yl)-2-oxo-ethoxy]-1-phenyl-1H-pyrazole-3-carbonyl}-amino)-pentanoyl]-piperazine-1-carboxylic acid butyl ester]
18 | 7.55 | 6.59 | CCCCOC(=O)N1CCN(C(=O)[C@@H](NC(=O)c2cc(OCC(=O)N3CCC[C@H]3C(=O)NC3CCC3)n(-c3ccccc3)n2)C(C)C)CC1 [Example 222, 4-[(S)-2-({5-[2-((S)-2-Cyclobutylcarbamoyl-pyrrolidin-1-yl)-2-oxo-ethoxy]-1-phenyl-1H-pyrazole-3-carbonyl}-amino)-3-methyl-butyryl]-piperazine-1-carboxylic acid butyl ester]
19 | 7.80 | 6.39 | CCCCOC(=O)N1CCN(C(=O)[C@H](COC)NC(=O)c2cc(OCC(=O)N3CCC[C@H]3C(=O)NC3CCC3)n(-c3ccccc3)n2)CC1 [Example 232, 4-[(S)-2-({5-[2-((S)-2-Cyclobutylcarbamoyl-pyrrolidin-1-yl)-2-oxo-ethoxy]-1-phenyl-1H-pyrazole-3-carbonyl}-amino)-3-methoxy-propionyl]-piperazine-1-carboxylic acid butyl ester]
